Patent publication US11807644B2 (PMV Pharmaceuticals, Inc., priority 2020, dated 2023)

What follows are compounds tested against T1, recombinant His-tag Y220C p53 DBD protein (Homo sapiens, UniProt P04637, Y220C) (assay: In vitro DNA binding activity assay (TR-FRET): binding of His-tag Y220C p53 DBD to biotin-labeled consensus DNA). Settings: SC150 = concentration to increase DNA binding by […], His-tag Y220C p53 DBD, biotin-labeled consensus DNA.
T1 construct: recombinant His-tag Y220C p53 DBD protein (amino acids #˜94-312)
Assay type: biochemical

Row | SMILES | Y220C SC150 (μM)
1 | COC(C)(C)c1nc(C(=O)NCc2nc(-c3cc4c(N[C@@H]5CCN(C)C[C@@H]5F)cccc4n3CC(F)(F)F)no2)cs1 [Compound 530B, N-{[3-(4-{[(3S,4R)-3-fluoro-1-methylpiperidin-4-yl]amino}-1-(2,2,2-trifluoroethyl)-1H-indol-2-yl)-1,2,4-oxadiazol-5-yl]methyl}-2-(2-methoxypropan-2-yl)-1,3-thiazole-4-carboxamide] | * (* = 0 μM ≤ SC150 < 0.1 μM)
2 | CN1CC[C@@H](Nc2cccc3c2cc(-c2noc(CNC(=O)c4csc(C(C)(C)CO)n4)n2)n3CC(F)(F)F)[C@@H](F)C1 [Compound 532B, N-{[3-(4-{[(3S,4R)-3-fluoro-1-methylpiperidin-4-yl]amino}-1-(2,2,2-trifluoroethyl)-1H-indol-2-yl)-1,2,4-oxadiazol-5-yl]methyl}-2-(1-hydroxy-2-methylpropan-2-yl)-1,3-thiazole-4-carboxamide] | * (* = 0 μM ≤ SC150 < 0.1 μM)
3 | COCCN(C)c1nc(C(=O)NCc2nc(-c3cc4c(N[C@@H]5CCN(C)C[C@@H]5F)cccc4n3CC(F)(F)F)no2)cs1 [Compound 536B, N-{[3-(4-{1[(3S,4R)-3-fluoro-1-methylpiperidin-4-yl]amino}-1-(2,2,2-trifluoroethyl)-1H-indol-2-yl)-1,2,4-oxadiazol-5-yl]methyl}-2-[(2-methoxyethyl)(methyl)amino]-1,3-thiazole-4-carboxamide] | * (* = 0 μM ≤ SC150 < 0.1 μM)
4 | COC[C@@H]1CCCN1c1cc(C(=O)NCc2nc(-c3cc4c(N[C@@H]5CCN(C)C[C@@H]5F)cccc4n3CC(F)(F)F)no2)cs1 [Compound 537B, N-{[3-(4-{[(3S,4R)-3-fluoro-1-methylpiperidin-4-yl]amino}-1-(2,2,2-trifluoroethyl)-1H-indol-2-yl)-1,2,4-oxadiazol-5-yl]methyl}-5-[(2S)-2-(methoxymethyl)pyrrolidin-1-yl]thiophene-3-carboxamide] | * (* = 0 μM ≤ SC150 < 0.1 μM)
5 | CC(C)c1nc(C(=O)NCc2nc(-c3cc4c(N[C@@H]5CCN(C)C[C@@H]5F)cccc4n3CC(F)(F)F)no2)cn1C [Compound 539B, N-{[3-(4-{[(3S,4R)-3-fluoro-1-methylpiperidin-4-yl]amino}-1-(2,2,2-trifluoroethyl)-1H-indol-2-yl)-1,2,4-oxadiazol-5-yl]methyl}-1-methyl-2-(propan-2-yl)-1H-imidazole-4-carboxamide] | * (* = 0 μM ≤ SC150 < 0.1 μM)
6 | CN1CC[C@@H](Nc2cccc3c2cc(-c2noc(CNC(=O)c4cn5c(n4)CCCC5)n2)n3CC(F)(F)F)[C@@H](F)C1 [Compound 541B, N-{[3-(4-{[(3S,4R)-3-fluoro-1-methylpiperidin-4-yl]amino}-1-(2,2,2-trifluoroethyl)-1H-indol-2-yl)-1,2,4-oxadiazol-5-yl]methyl}-5H,6H, 7H,8H-imidazo[1,2-a]pyridine-2-carboxamide] | * (* = 0 μM ≤ SC150 < 0.1 μM)
7 | CN1CC[C@@H](Nc2cccc3c2cc(-c2noc(CNC(=O)c4cc(C(C)(C)C)on4)n2)n3CC(F)(F)F)[C@@H](F)C1 [Compound 543B, 5-tert-butyl-N-{[3-(4-{[(3S,4R)-3-fluoro-1-methylpiperidin-4-yl]amino}-1-(2,2,2-trifluoroethyl)-1H-indol-2-yl)-1,2,4-oxadiazol-5-yl]methyl}-1,2-oxazole-3-carboxamide] | * (* = 0 μM ≤ SC150 < 0.1 μM)
8 | COCC(C)(C)n1ccc(C(=O)NCc2nc(-c3cc4c(N[C@@H]5CCN(C)C[C@@H]5F)cccc4n3CC(F)(F)F)no2)n1 [Compound 547B, N-{[3-(4-{[(3S,4R)-3-fluoro-1-methylpiperidin-4-yl]amino}-1-(2,2,2-trifluoroethyl)-1H-indol-2-yl)-1,2,4-oxadiazol-5-yl]methyl}-1-(1-methoxy-2-methylpropan-2-yl)-1H-pyrazole-3-carboxamide] | * (* = 0 μM ≤ SC150 < 0.1 μM)
9 | CN1CC[C@@H](Nc2cccc3c2cc(-c2noc(CNC(=O)c4ccn(C(C)(C)CF)n4)n2)n3CC(F)(F)F)[C@@H](F)C1 [Compound 548B, N-{[3-(4-{[(3S,4R)-3-fluoro-1-methylpiperidin-4-yl]amino}-1-(2,2,2-trifluoroethyl)-1H-indol-2-yl)-1,2,4-oxadiazol-5-yl]methyl}-1-(1-fluoro-2-methylpropan-2-yl)-1H-pyrazole-3-carboxamide] | * (* = 0 μM ≤ SC150 < 0.1 μM)
10 | COCc1cc(C(=O)NCc2nc(-c3cc4c(N[C@@H]5CCN(C)C[C@@H]5F)cccc4n3CC(F)(F)F)no2)cc(C)n1 [Compound 551B, N-{[3-(4-{[(3S,4R)-3-fluoro-1-methylpiperidin-4-yl]amino}-1-(2,2,2-trifluoroethyl)-1H-indol-2-yl)-1,2,4-oxadiazol-5-yl]methyl}-2-(methoxymethyl)-6-methylpyridine-4-carboxamide] | * (* = 0 μM ≤ SC150 < 0.1 μM)
11 | CN1CC[C@@H](Nc2cccc3c2cc(-c2cc(CNC(=O)c4ccn(C(C)(C)C)c4)on2)n3CC(F)(F)F)[C@@H](F)C1 [Compound 553B, 1-tert-butyl-N-{[3-(4-{[(3S,4R)-3-fluoro-1-methylpiperidin-4-yl]amino}-1-(2,2,2-trifluoroethyl)-1H-indol-2-yl)-1,2-oxazol-5-yl]methyl}-1H-pyrrole-3-carboxamide] | * (* = 0 μM ≤ SC150 < 0.1 μM)

Now from value to compound:

Row | Y220C SC150 (μM) | SMILES
12 | * (* = 0 μM ≤ SC150 < 0.1 μM) | CN1CC[C@@H](Nc2cccc3c2cc(-c2noc(CNC(=O)c4ccn(C(C)(C)C)n4)n2)n3CC(F)(F)F)[C@@H](F)C1 [Compound 529B, 1-tert-butyl-N-{[3-(4-{[(3S,4R)-3-fluoro-1-methylpiperidin-4-yl]amino}-1-(2,2,2-trifluoroethyl)-1H-indol-2-yl)-1,2,4-oxadiazol-5-yl]methyl}-1H-pyrazole-3-carboxamide]
13 | * (* = 0 μM ≤ SC150 < 0.1 μM) | CCn1cccc1C(=O)NCc1nc(-c2cc3c(N[C@@H]4CCN(C)C[C@@H]4F)cccc3n2CC(F)(F)F)no1 [Compound 534B, 1-ethyl-N-{[3-(4-{[(3S,4R)-3-fluoro-1-methylpiperidin-4-yl]amino}-1-(2,2,2-trifluoroethyl)-1H-indol-2-yl)-1,2,4-oxadiazol-5-yl]methyl}-1H-pyrrole-2-carboxamide]
14 | * (* = 0 μM ≤ SC150 < 0.1 μM) | CC(C)Cn1cccc1C(=O)NCc1nc(-c2cc3c(N[C@@H]4CCN(C)C[C@@H]4F)cccc3n2CC(F)(F)F)no1 [Compound 535B, N-{[3-(4-{[(3S,4R)-3-fluoro-1-methylpiperidin-4-yl]amino}-1-(2,2,2-trifluoroethyl)-1H-indol-2-yl)-1,2,4-oxadiazol-5-yl]methyl}-1-(2-methylpropyl)-1H-pyrrole-2-carboxamide]
15 | * (* = 0 μM ≤ SC150 < 0.1 μM) | COCCn1cccc1C(=O)NCc1nc(-c2cc3c(N[C@@H]4CCN(C)C[C@@H]4F)cccc3n2CC(F)(F)F)no1 [Compound 538B, N-{[3-(4-{[(3S,4R)-3-fluoro-1-methylpiperidin-4-yl]amino}-1-(2,2,2-trifluoroethyl)-1H-indol-2-yl)-1,2,4-oxadiazol-5-yl]methyl}-1-(2-methoxyethyl)-1H-pyrrole-2-carboxamide]
16 | * (* = 0 μM ≤ SC150 < 0.1 μM) | CN1CC[C@@H](Nc2cccc3c2cc(-c2noc(CNC(=O)c4cccn4CCF)n2)n3CC(F)(F)F)[C@@H](F)C1 [Compound 540B, N-{[3-(4-{[(3S,4R)-3-fluoro-1-methylpiperidin-4-yl]amino}-1-(2,2,2-trifluoroethyl)-1H-indol-2-yl)-1,2,4-oxadiazol-5-yl]methyl}-1-(2-fluoroethyl)-1H-pyrrole-2-carboxamide]
17 | * (* = 0 μM ≤ SC150 < 0.1 μM) | CN1CC[C@@H](Nc2cccc3c2cc(-c2noc(CNC(=O)c4ccc(C(C)(C)C)n4C)n2)n3CC(F)(F)F)[C@@H](F)C1 [Compound 542B, 5-tert-butyl-N-{[3-(4-{[(3S,4R)-3-fluoro-1-methylpiperidin-4-yl]amino}-1-(2,2,2-trifluoroethyl)-1H-indol-2-yl)-1,2,4-oxadiazol-5-yl]methyl}-1-methyl-1H-pyrrole-2-carboxamide]
18 | ** (** = 0.1 μM ≤ SC150 < 0.5 μM) | CN1CC[C@@H](Nc2cccc3c2cc(-c2noc(C(=O)NCc4ccccc4)n2)n3CC(F)(F)F)[C@@H](F)C1 [Compound 544B, N-benzyl-3-(4-{[(3S,4R)-3-fluoro-1-methylpiperidin-4-yl]amino}-1-(2,2,2-trifluoroethyl)-1H-indol-2-yl)-1,2,4-oxadiazole-5-carboxamide]
19 | ** (** = 0.1 μM ≤ SC150 < 0.5 μM) | CN1CC[C@@H](Nc2cccc3c2cc(-c2noc(C(=O)NCC4CC4)n2)n3CC(F)(F)F)[C@@H](F)C1 [Compound 545B, N-(cyclopropylmethyl)-3-(4-{[(3S,4R)-3-fluoro-1-methylpiperidin-4-yl]amino}-1-(2,2,2-trifluoroethyl)-1H-indol-2-yl)-1,2,4-oxadiazole-5-carboxamide]
20 | ** (** = 0.1 μM ≤ SC150 < 0.5 μM) | CN1CC[C@@H](Nc2cccc3c2cc(-c2noc(C(=O)NCc4cnn(C)c4)n2)n3CC(F)(F)F)[C@@H](F)C1 [Compound 546B, 3-(4-{[(3S,4R)-3-fluoro-1-methylpiperidin-4-yl]amino}-1-(2,2,2-trifluoroethyl)-1H-indol-2-yl)-N-[(1-methyl-1H-pyrazol-4-yl)methyl]-1,2,4-oxadiazole-5-carboxamide]
21 | * (* = 0 μM ≤ SC150 < 0.1 μM) | CN1CC[C@@H](Nc2cccc3c2cc(-c2noc(CNC(=O)c4cccc(C(C)(C)O)c4)n2)n3CC(F)(F)F)[C@@H](F)C1 [Compound 549B, N-{[3-(4-{[(3S,4R)-3-fluoro-1-methylpiperidin-4-yl]amino}-1-(2,2,2-trifluoroethyl)-1H-indol-2-yl)-1,2,4-oxadiazol-5-yl]methyl}-3-(2-hydroxypropan-2-yl)benzamide]
22 | * (* = 0 μM ≤ SC150 < 0.1 μM) | CN1CC[C@@H](Nc2cccc3c2cc(-c2noc(CNC(=O)c4ccnc(C(C)(C)O)c4)n2)n3CC(F)(F)F)[C@@H](F)C1 [Compound 550B, N-{[3-(4-{[(3S,4R)-3-fluoro-1-methylpiperidin-4-yl]amino}-1-(2,2,2-trifluoroethyl)-1H-indol-2-yl)-1,2,4-oxadiazol-5-yl]methyl}-2-(2-hydroxypropan-2-yl)pyridine-4-carboxamide]
